Measured values published in publication PMC4297516 (Bioorganic & medicinal chemistry letters, 2014).

What was measured:
[1] = target: human D2 receptors expressed in stably transfected HEK 293 cells (Homo sapiens, UniProt P14416); experiment: forskolin-dependent whole cell adenylyl cyclase inhibition assay, D2; assay type: cell-based; settings: HEK293, read-out: Intrinsic activity hD2 HEK
[2] = target: human D3 receptors expressed in stably transfected HEK 293 cells (Homo sapiens, UniProt P35462); experiment: forskolin-dependent whole cell adenylyl cyclase inhibition assay, D3; assay type: cell-based; settings: HEK293, read-out: Intrinsic activity hD3 HEK
human D3 receptors expressed in stably transfected HEK 293 cells, sequence (P35462 whole entry): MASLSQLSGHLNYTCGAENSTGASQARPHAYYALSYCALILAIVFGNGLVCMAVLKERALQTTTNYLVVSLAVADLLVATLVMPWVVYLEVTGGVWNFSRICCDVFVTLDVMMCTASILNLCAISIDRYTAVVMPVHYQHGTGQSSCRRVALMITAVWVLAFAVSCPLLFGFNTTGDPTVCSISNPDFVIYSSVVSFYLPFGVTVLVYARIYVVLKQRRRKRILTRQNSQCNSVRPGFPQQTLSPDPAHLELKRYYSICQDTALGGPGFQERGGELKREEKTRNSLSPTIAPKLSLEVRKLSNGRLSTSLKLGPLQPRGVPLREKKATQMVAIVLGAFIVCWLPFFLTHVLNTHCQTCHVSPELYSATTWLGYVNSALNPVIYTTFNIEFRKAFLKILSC

human D2 receptors expressed in stably transfected HEK 293 cells, sequence (P14416 whole entry): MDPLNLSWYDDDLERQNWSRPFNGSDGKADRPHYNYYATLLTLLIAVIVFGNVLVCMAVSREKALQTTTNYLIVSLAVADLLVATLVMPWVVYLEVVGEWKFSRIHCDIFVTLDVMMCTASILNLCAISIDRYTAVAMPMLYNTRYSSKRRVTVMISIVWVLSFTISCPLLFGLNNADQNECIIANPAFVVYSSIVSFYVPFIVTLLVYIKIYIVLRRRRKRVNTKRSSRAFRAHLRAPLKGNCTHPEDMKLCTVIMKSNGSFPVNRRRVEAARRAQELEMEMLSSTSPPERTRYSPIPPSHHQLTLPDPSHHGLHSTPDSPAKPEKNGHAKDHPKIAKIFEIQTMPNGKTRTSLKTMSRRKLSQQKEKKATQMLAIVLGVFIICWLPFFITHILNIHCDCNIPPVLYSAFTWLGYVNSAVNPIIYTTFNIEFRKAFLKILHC

COc1ccccc1N1CCN(CCCCNC(=O)c2ccc(N(C)C)cc2)CC1 [WC 10, 4-(Dimethylamino)-N-[4-(4-(2-methoxyphenyl)piperazin-1-yl)butyl]benzamide]
Emax [1]: 33.5 ± 3.1%
Emax [2]: 18.7 ± 2.2%

COc1ccccc1N1CCN(CCCCNC(=O)c2ccc(CCF)cc2)CC1 [WC 44]
Emax [1]: 35.3 ± 1%
